Results published in PubChem BioAssay (NCI).
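Values below derive from 48-hour exposures of cells grown in 96-well plates, with endpoints linearly interpolated between the two concentrations bracketing the appropriate inhibition level. GI50 marks 50% less growth. Definition used: TGI = concentration required for complete inhibition of growth.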

Tests used:
Experiment in all cases: inhibition of tumour cell growth, NCI panel, 48 h
OVCAR-3 ovarian = test system: OVCAR-3 ovarian
SK-MEL-2 melanoma = test system: SK-MEL-2 melanoma
M14 melanoma = test system: M14 melanoma
EKVX NSCLC = test system: EKVX NSCLC
U251 CNS = test system: U251 CNS
BT-549 breast = test system: BT-549 breast
SNB-19 CNS = test system: SNB-19 CNS
SN12C renal = test system: SN12C renal
K-562 leukemia = test system: K-562 leukemia
UACC-257 melanoma = test system: UACC-257 melanoma
MALME-3M melanoma = test system: MALME-3M melanoma
OVCAR-5 ovarian = test system: OVCAR-5 ovarian
SF-268 CNS = test system: SF-268 CNS
SF-539 CNS = test system: SF-539 CNS
MOLT-4 leukemia = test system: MOLT-4 leukemia
RXF 393 renal = test system: RXF 393 renal
A549 NSCLC = test system: A549 NSCLC
LOX IMVI melanoma = test system: LOX IMVI melanoma
NCI-H23 lung = test system: NCI-H23 lung
TK-10 renal = test system: TK-10 renal
MCF7 breast = test system: MCF7 breast
UACC-62 melanoma = test system: UACC-62 melanoma
HCT-116 colon = test system: HCT-116 colon
HS 578T breast = test system: HS 578T breast
HL-60(TB) leukemia = test system: HL-60(TB) leukemia
IGROV1 ovarian = test system: IGROV1 ovarian
SR leukemia = test system: SR leukemia
SK-MEL-5 melanoma = test system: SK-MEL-5 melanoma
HCT-15 colon = test system: HCT-15 colon
SW-620 colon = test system: SW-620 colon
HT29 colon = test system: HT29 colon
KM12 colon = test system: KM12 colon
786-0 renal = test system: 786-0 renal
PC-3 prostate = test system: PC-3 prostate
DU-145 prostate = test system: DU-145 prostate
SK-OV-3 ovarian = test system: SK-OV-3 ovarian
ACHN renal = test system: ACHN renal
HOP-62 NSCLC = test system: HOP-62 NSCLC
SK-MEL-28 melanoma = test system: SK-MEL-28 melanoma
UO-31 renal = test system: UO-31 renal
NCI-H522 lung = test system: NCI-H522 lung
SNB-75 CNS = test system: SNB-75 CNS
NCI/ADR-RES ovarian = test system: NCI/ADR-RES ovarian
T-47D breast = test system: T-47D breast
CAKI-1 renal = test system: CAKI-1 renal
OVCAR-8 ovarian = test system: OVCAR-8 ovarian
NCI-H226 lung = test system: NCI-H226 lung
HOP-92 NSCLC = test system: HOP-92 NSCLC
COLO 205 colon = test system: COLO 205 colon
SF-295 CNS = test system: SF-295 CNS
MDA-MB-435 = test system: MDA-MB-435
OVCAR-4 ovarian = test system: OVCAR-4 ovarian
NCI-H460 lung = test system: NCI-H460 lung
MDA-MB-231 breast = test system: MDA-MB-231 breast
RPMI-8226 leukemia = test system: RPMI-8226 leukemia
A498 renal = test system: A498 renal
CCRF-CEM leukemia = test system: CCRF-CEM leukemia

SMILES: O=[N+]([O-])c1ccc2nnnn2c1
- TGI (OVCAR-3 ovarian): 35.2 µM
- TGI (SK-MEL-2 melanoma): 67.1 µM
- TGI (M14 melanoma): > 100 µM
- TGI (EKVX NSCLC): > 100 µM
- TGI (U251 CNS): 84.9 µM
- TGI (BT-549 breast): > 100 µM
- TGI (SNB-19 CNS): > 100 µM
- TGI (SN12C renal): > 100 µM
- TGI (K-562 leukemia): > 100 µM
- TGI (UACC-257 melanoma): > 100 µM
- TGI (MALME-3M melanoma): 60.5 µM
- TGI (OVCAR-5 ovarian): > 100 µM
- TGI (SF-268 CNS): > 100 µM
- TGI (SF-539 CNS): 65.7 µM
- TGI (MOLT-4 leukemia): > 100 µM
- TGI (RXF 393 renal): > 100 µM
- TGI (A549 NSCLC): > 100 µM
- TGI (LOX IMVI melanoma): 35.8 µM
- TGI (NCI-H23 lung): > 100 µM
- TGI (TK-10 renal): > 100 µM
- TGI (MCF7 breast): > 100 µM
- TGI (UACC-62 melanoma): > 100 µM
- TGI (HCT-116 colon): 50.6 µM
- TGI (HS 578T breast): > 100 µM
- TGI (HL-60(TB) leukemia): 74.6 µM
- TGI (IGROV1 ovarian): > 100 µM
- TGI (SR leukemia): 87.1 µM
- TGI (SK-MEL-5 melanoma): 41.4 µM
- TGI (HCT-15 colon): 44.3 µM
- TGI (SW-620 colon): > 100 µM
- TGI (HT29 colon): > 100 µM
- TGI (KM12 colon): > 100 µM
- TGI (786-0 renal): > 100 µM
- TGI (PC-3 prostate): > 100 µM
- TGI (DU-145 prostate): > 100 µM
- TGI (SK-OV-3 ovarian): > 100 µM
- TGI (ACHN renal): > 100 µM
- TGI (HOP-62 NSCLC): > 100 µM
- TGI (SK-MEL-28 melanoma): 61.8 µM
- TGI (UO-31 renal): > 100 µM
- TGI (NCI-H522 lung): 13.2 µM
- TGI (SNB-75 CNS): > 100 µM
- TGI (NCI/ADR-RES ovarian): > 100 µM
- TGI (T-47D breast): > 100 µM
- TGI (CAKI-1 renal): 63.1 µM
- TGI (OVCAR-8 ovarian): > 100 µM
- TGI (NCI-H226 lung): 47.3 µM
- TGI (HOP-92 NSCLC): > 100 µM
- TGI (COLO 205 colon): > 100 µM
- TGI (SF-295 CNS): > 100 µM
- TGI (MDA-MB-435): 32.8 µM
- TGI (OVCAR-4 ovarian): > 100 µM
- TGI (NCI-H460 lung): > 100 µM
- TGI (MDA-MB-231 breast): 96.4 µM

SMILES: C[C@]12CC[C@@H]3c4ccc(Oc5nc(N6CC6)nc(N6CC6)n5)cc4CC[C@H]3[C@@H]1CCC2=O
- GI50 (OVCAR-3 ovarian): 3.86 µM
- TGI (OVCAR-3 ovarian): 15.3 µM
- GI50 (SK-MEL-2 melanoma): 3.16 µM
- TGI (SK-MEL-2 melanoma): 8.97 µM
- GI50 (M14 melanoma): 3.58 µM
- TGI (M14 melanoma): 21.7 µM
- GI50 (U251 CNS): 2 µM
- TGI (U251 CNS): 11.7 µM
- GI50 (BT-549 breast): 5.92 µM
- TGI (BT-549 breast): 25.3 µM
- GI50 (SNB-19 CNS): 7.25 µM
- TGI (SNB-19 CNS): 21.5 µM
- GI50 (SN12C renal): 1.74 µM
- TGI (SN12C renal): 15.8 µM
- GI50 (K-562 leukemia): 3.02 µM
- TGI (K-562 leukemia): 17.5 µM
- GI50 (RPMI-8226 leukemia): 2.17 µM
- TGI (RPMI-8226 leukemia): 7.58 µM
- GI50 (UACC-257 melanoma): 2.89 µM
- TGI (UACC-257 melanoma): 17.5 µM
- GI50 (OVCAR-5 ovarian): 12.1 µM
- TGI (OVCAR-5 ovarian): 30.2 µM
- GI50 (SF-268 CNS): 2.05 µM
- TGI (SF-268 CNS): 17.9 µM
- GI50 (SF-539 CNS): 2.2 µM
- TGI (SF-539 CNS): 7.43 µM
- GI50 (MOLT-4 leukemia): 0.747 µM
- TGI (MOLT-4 leukemia): 4.97 µM
- GI50 (A549 NSCLC): 1.5 µM
- TGI (A549 NSCLC): 12.8 µM
- GI50 (LOX IMVI melanoma): 1.37 µM
- TGI (LOX IMVI melanoma): 3.1 µM
- GI50 (NCI-H23 lung): 3.36 µM
- TGI (NCI-H23 lung): 19 µM
- GI50 (MCF7 breast): 2.78 µM
- TGI (MCF7 breast): 14.7 µM
- GI50 (HCT-116 colon): 2.46 µM
- TGI (HCT-116 colon): 18.8 µM
- GI50 (HS 578T breast): 4.64 µM
- TGI (HS 578T breast): 44.8 µM
- GI50 (HL-60(TB) leukemia): 0.529 µM
- TGI (HL-60(TB) leukemia): 3.26 µM
- GI50 (IGROV1 ovarian): 3.3 µM
- TGI (IGROV1 ovarian): 22.2 µM
- GI50 (SR leukemia): 0.351 µM
- TGI (SR leukemia): 11.4 µM
- GI50 (SK-MEL-5 melanoma): 1.54 µM
- TGI (SK-MEL-5 melanoma): 3.13 µM
- GI50 (A498 renal): 1.88 µM
- TGI (A498 renal): 5.79 µM
- GI50 (HCT-15 colon): 2.85 µM
- TGI (HCT-15 colon): 18.6 µM
- GI50 (SW-620 colon): 2.26 µM
- TGI (SW-620 colon): 18.5 µM
- GI50 (HT29 colon): 4.39 µM
- TGI (HT29 colon): 19.4 µM
- GI50 (KM12 colon): 5.5 µM
- TGI (KM12 colon): 20 µM
- GI50 (786-0 renal): 3.41 µM
- TGI (786-0 renal): 22.3 µM
- GI50 (PC-3 prostate): 3.46 µM
- TGI (PC-3 prostate): 21.8 µM
- GI50 (CCRF-CEM leukemia): 1.6 µM
- TGI (CCRF-CEM leukemia): 16.2 µM
- GI50 (DU-145 prostate): 1.82 µM
- TGI (DU-145 prostate): 6.46 µM
- GI50 (SK-OV-3 ovarian): 3.31 µM
- TGI (SK-OV-3 ovarian): 13.9 µM
- GI50 (ACHN renal): 1.13 µM
- TGI (ACHN renal): 13 µM
- GI50 (HOP-62 NSCLC): 2.23 µM
- TGI (HOP-62 NSCLC): 15.4 µM
- GI50 (SK-MEL-28 melanoma): 6.01 µM
- TGI (SK-MEL-28 melanoma): 42.8 µM
- GI50 (UO-31 renal): 2.68 µM
- TGI (UO-31 renal): 13.2 µM
- GI50 (NCI-H522 lung): 1.91 µM
- TGI (NCI-H522 lung): 4.57 µM
- GI50 (SNB-75 CNS): 2.55 µM
- TGI (SNB-75 CNS): 14.9 µM
- GI50 (NCI/ADR-RES ovarian): 4.6 µM
- TGI (NCI/ADR-RES ovarian): 33.2 µM
- GI50 (T-47D breast): 3.55 µM
- TGI (T-47D breast): 19.4 µM
- GI50 (CAKI-1 renal): 0.641 µM
- TGI (CAKI-1 renal): 43.7 µM
- GI50 (OVCAR-8 ovarian): 2.64 µM
- TGI (OVCAR-8 ovarian): 23.8 µM
- GI50 (NCI-H226 lung): 3.23 µM
- TGI (NCI-H226 lung): 30.8 µM
- GI50 (COLO 205 colon): 3.35 µM
- TGI (COLO 205 colon): 16.2 µM
- GI50 (SF-295 CNS): 1.17 µM
- TGI (SF-295 CNS): 15.3 µM
- GI50 (MDA-MB-435): 5.43 µM
- TGI (MDA-MB-435): 22 µM
- GI50 (OVCAR-4 ovarian): 3.38 µM
- TGI (OVCAR-4 ovarian): 15.2 µM
- GI50 (NCI-H460 lung): 0.517 µM
- TGI (NCI-H460 lung): 2.79 µM
- GI50 (MDA-MB-231 breast): 10.2 µM
- TGI (MDA-MB-231 breast): 25.2 µM
